From BindingDB's records for patent US12410160 (Gilead Sciences, 2025) come the findings set out here.

One assay concerns the target T1, Ketohexokinase (Human, UniProt P50053).
T1 sequence (P50053 whole entry): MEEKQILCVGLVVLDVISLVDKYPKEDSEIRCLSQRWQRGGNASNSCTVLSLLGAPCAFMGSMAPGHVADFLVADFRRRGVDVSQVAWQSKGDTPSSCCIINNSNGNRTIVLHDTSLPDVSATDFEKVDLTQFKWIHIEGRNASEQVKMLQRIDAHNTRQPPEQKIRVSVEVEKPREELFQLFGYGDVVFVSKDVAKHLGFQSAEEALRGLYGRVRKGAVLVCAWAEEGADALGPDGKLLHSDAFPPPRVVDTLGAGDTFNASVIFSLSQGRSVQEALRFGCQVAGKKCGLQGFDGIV
Kind of assay: KHK Biochemical Assay. On the procedure:
(§1) Compounds were tested for KHK enzyme inhibition in a high-throughput 384-well assay format using the ADP-Glo assay (Promega) in buffer consisting of 50 mM Hepes (pH 7.4), 140 mM KCl, 5 mM MgCl2 and 0.01% Triton-X. 0.2 nM. […] Compounds were serially diluted (1:3) in DMSO. […] The plates were incubated at room temperature for 4 hours before adding ADP-Glo reagent to quench the enzyme reaction, followed by incubation at room temperature for 1 hour. The ADP-Glo detection reagent was then added to the plates and luminescence was measured on the Envision plate reader after 1 hour.

The target of assay [1] is T2, Isoform A of Ketohexokinase (Peripheral) (Human, UniProt P50053).
T2 sequence (P50053 whole entry): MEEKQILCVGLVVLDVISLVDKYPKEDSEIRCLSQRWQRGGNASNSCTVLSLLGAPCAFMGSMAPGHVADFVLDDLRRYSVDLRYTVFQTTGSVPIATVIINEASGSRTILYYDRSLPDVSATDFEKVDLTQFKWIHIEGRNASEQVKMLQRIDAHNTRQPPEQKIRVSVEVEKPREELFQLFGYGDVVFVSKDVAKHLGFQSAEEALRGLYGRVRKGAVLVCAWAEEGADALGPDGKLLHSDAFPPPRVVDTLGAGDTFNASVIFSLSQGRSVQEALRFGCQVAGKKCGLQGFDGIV
Kind of assay: KHK Biochemical Assay. On the procedure:
as §1

What is called IC50 is the point on the concentration scale where inhibition reaches its midpoint. Read a high IC50 as lower potency. As to `C[C@H]1[C@H](O)CN1c1nc(-c2cccc(S(=N)(=O)CC#N)c2)c2c(n1)C(F)(F)CC2` (stereo partly drawn) [US12410160, Example 628], the half-maximal inhibitory concentration (IC50) came to 8.8 nM on Ketohexokinase and 10.3 nM in assay [1].

In the case of `C[C@H]1[C@H](O)CN1c1nc(-c2ccc3c(c2)COCC32CCC(=O)N2)c2c(n1)C(F)(F)CC2` (stereo partly drawn) [US12410160, Example 639], the IC50 stood at 1.2 nM against Ketohexokinase and 15.9 nM in assay [1].

For `COC(=O)N[C@H]1COc2cc(-c3nc(N4C[C@@H](O)[C@@H]4C)nc4c3CCC4(F)F)ccc21` [US12410160, Example 814], the IC50 on Ketohexokinase worked out at 1.8 nM; in assay [1], 71.3 nM.

Consider `COc1ccc(-c2nc(N3CC[C@@H]3C(F)(F)F)nc3c2CCC3(F)F)cc1[S@@](C)(=N)=O` [US12410160, Example 825], for which the IC50 is 0.9 nM at Ketohexokinase and 0.5 nM in assay [1].
